The results in this text go back to patent US20230331715A1, “SPIRO[3.3]HEPTANE DERIVATIVES FOR THE TREATMENT AND PROPHYLAXIS OF HEPATITIS B VIRUS INFECTION” (priority 2020, published 2023).

Read-outs that look alike come from different tables or passages of the source. Some results are limits rather than exact numbers.

Format in all cases: cell-based
The test system of series [1] is HBsAg. In words: PHH HBV natural infection assay, HBsAg (alphalisa). The protocol:
(§1) Detailed procedures regarding primary human hepatocyte (PHH) HBV natural infection assay are described as below. One tube of frozen PHH (10 million cells) is thawed in 37° C. water bath and then transferred to 20 mL of PHH thawing medium (Sigma, InVitroGRO HT Medium, Cat. S03319) with gently mixing. The cells were then centrifuged at […] for 5 min, the supernatant was discarded and the tube was refilled with 25 mL of PHH plating medium (Sigma, InVitroGRO CP Medium, Cat. S03317). The tube was shaken very gently to re-suspend all cells, and then 50 µl of cells were transferred to each well 384-well collagen I coated plate with appropriate liquid handling equipment, e.g. Integra VIAFLO384 or Agilent Bravo. The cells were then cultured for 24 hours in a cell incubator. For HBV infection, after PHH attachment on the culture plate, the plating medium was removed and replenished with PHH culture medium containing HBV virus. The PHH culture medium was prepared with Dulbecco’s Modified Eagle Medium (DMEM)/F12 (1: 1 in volume ratio) containing 10% fetal bovine serum (Gibco, Cat. 10099141), 5 ng/mL human epidermal growth factor (Gibco, Cat.PHG0311L), 20 ng/mL dexamethasone (Sigma, Cat.D4902-100mg), 250 ng/mL human recombinant insulin (Gibco, Cat.41400045) and 100 U/mL penicillin. HBV virus at 200 genome equivalent (GE) per cell with 4% PEG8000 (Sigma, Cat.P1458) containing culture medium were added to the PHH culture medium for infection. The cells were then cultured for 24 hours in cell incubator. Then the cell culture supernatant was removed. The HBV-infected PHH were cultured with sandwich culture method with PHH culture medium containing 1% DMSO and 0.25 mg/mL matrix gel for 72 hours. The supernatant was then refreshed with PHH culture medium containing different concentrations of testing compounds for two times with 72-hour interval. At the end of treatment, the supernatant was collected for viral markers measurements, including HBsAg, HBeAg, HBV DNA and cytotoxicity. HBsAg and HBeAg were detected using alphalisa method using their specific antibodies. For HBV DNA detection, HBV DNA Quantitative Fluorescence Diagnostic Kit (Sansure Biotech Inc.) was used following the manufacture’s protocol. Cytotoxicity was determined using Cell Counting Kit-8 (CCK8, Dojindo Molecular Technologies, Inc.).
(§2) The compounds of the present invention were tested for their capacity to inhibit HBsAg and HBeAg as described herein.
(In Alpha technology, singlet oxygen from a donor bead excites a nearby acceptor bead.)

Series [2] deals with HBeAg. As to the kind of experiment: PHH HBV natural infection assay, HBeAg (alphalisa). The protocol:
as §1, §2

The nature of series [3]: Cytotoxicity in PHH natural infection assay (Cell Counting Kit-8). To be noted: human; HBV-infected PHH, CCK8, compound refreshed two times with 72-hour interval. The protocol: as §1
Background: Tetrazolium assays rely on reduction of a dye to a coloured formazan, in cell work by metabolically active cells.

Where [4] appears, read: Hepatitis B virus, 72 h, read-out: HBsAg IC50, HBV-infected PHH, culture supernatant, compound refreshed two times with 72-hour interval, alphalisa.
The mark [5] stands for this setting: Hepatitis B virus, 72 h, read-out: HBeAg IC50, HBV-infected PHH, culture supernatant, compound refreshed two times with 72-hour interval, alphalisa.
[6] abbreviates: read-out: HBsAg IC50, HBV-infected PHH, culture supernatant, compound refreshed two times with 72-hour interval, alphalisa.
[7] abbreviates: read-out: HBeAg IC50, HBV-infected PHH, culture supernatant, compound refreshed two times with 72-hour interval, alphalisa.

What is called IC50 is the concentration at which inhibition is half-maximal. The term CC50 denotes the concentration that lowers cell viability or growth by half. A higher CC50 goes with lower toxicity to the cells. Regarding `CP(C)(=O)c1cccc(C(=O)NC2CC3(C2)CC(c2nc4cc(Cl)ccc4s2)C3)c1` (stereo not drawn) [Example 3, N-[6-(5-chloro-1,3-benzothiazol-2-yl)spiro[3.3]heptan-2-yl]-3-dimethylphosphoryl-benzamide], the results for the IC50 in series [1] (setting [4]) and in series [2] (setting [5]) were 6.37 µM and 4.39 µM, respectively. In series [3], the CC50 at 144 h was more than 10 µM.
For `CS(=O)(=O)c1cc(C(=O)NC2CC3(C2)CC(c2nc4cc(Cl)ccc4s2)C3)ccn1` (stereo not drawn) [Example 36, N-[6-(5-chloro-1,3-benzothiazol-2-yl)spiro[3.3]heptan-2-yl]-2-methylsulfonyl-pyridine-4-carboxamide] the same measures were 1.08 µM, 0.86 µM and more than 50 µM.
Regarding `CC(c1ccc(C(=O)NC2CC3(C2)CC(c2nc4cc(Cl)ccc4s2)C3)o1)S(C)(=O)=O` (stereo not drawn) [Example 16, N-[6-(5-chloro-1,3-benzothiazol-2-yl)spiro[3.3]heptan-2-yl]-5-(1-methylsulfonylethyl)furan-2-carboxamide], the IC50 in series [1] (setting [4]) stood at 2.69 µM; in series [2] (setting [5]), 1.92 µM. Further, in series [3], the CC50 at 144 h came out at 23.9 µM.
For the compound `[H][C@]1(NC(=O)c2ccnc(S(C)(=O)=O)c2)C[C@]2(C1)C[C@]([H])(c1nc3cc(Cl)ccc3s1)C2` (single isomer, unassigned) [Example 54-b, (Ra)-N-[6-(5-chloro-1,3-benzothiazol-2-yl)spiro[3.3]heptan-2-yl]-2-methylsulfonyl-pyridine-4-carboxamide], the IC50 in series [1] (setting [6]) turned out to be 0.28 µM; in series [2] (setting [7]) it was 0.23 µM. The compound also had a CC50 at 144 h in series [3] of 15.3 µM.
For `[H][C@]1(NC(=O)c2ccnc(C(N)=O)c2)C[C@]2(C1)C[C@]([H])(c1nc3cc(Cl)ccc3s1)C2` (single isomer, unassigned) [Example 53-b, (Ra)-N4-[6-(5-chloro-1,3-benzothiazol-2-yl)spiro[3.3]heptan-2-yl]pyridine-2,4-dicarboxamide], in that order: 5.96 µM, 5.25 µM and more than 10 µM.
Take `NC(=O)Nc1cc(C(=O)NC2CC3(C2)CC(c2nc4cc(Cl)ccc4s2)C3)ccn1` (stereo not drawn) [Example 10, N-[6-(5-chloro-1,3-benzothiazol-2-yl)spiro[3.3]heptan-2-yl]-2-ureido-pyridine-4-carboxamide]: the IC50 was found to be 7.7 µM in series [1] (setting [4]) and 8.43 µM in series [2] (setting [5]). Besides, the CC50 at 144 h in series [3] was more than 50 µM.
For `CCN1CC(C(=O)NC2CC3(C2)CC(c2nc4cc(Cl)ccc4s2)C3)CC1=O` (stereo not drawn) [Example 31, N-[6-(5-chloro-1,3-benzothiazol-2-yl)spiro[3.3]heptan-2-yl]-1-ethyl-5-oxo-pyrrolidine-3-carboxamide], in that order: 9.58 µM, 8.29 µM and more than 10 µM.
As for `O=C(NC1CC2(C1)CC(c1nc3cc(Cl)ccc3s1)C2)c1ccnc(C(F)(F)F)c1` (stereo not drawn) [Example 4, N-[6-(5-chloro-1,3-benzothiazol-2-yl)spiro[3.3]heptan-2-yl]-2-(trifluoromethyl)pyridine-4-carboxamide], the figures for the IC50 in series [1] (setting [4]) and in series [2] (setting [5]) were 5.05 µM and 4.34 µM, respectively. The same compound gave a CC50 at 144 h in series [3] of more than 10 µM.
For `COc1cc(C(=O)NC2CC3(C2)CC(c2nc4cc(Cl)ccc4s2)C3)ccn1` (stereo not drawn) [Example 42, N-[6-(5-chloro-1,3-benzothiazol-2-yl)spiro[3.3]heptan-2-yl]-2-methoxy-pyridine-4-carboxamide] the same measures were 3.12 µM, 2.67 µM and more than 10 µM.
Turning to `O=C(NC1CC2(C1)CC(c1nc3cc(Cl)ccc3s1)C2)c1ccc(S(=O)(=O)C2CC2)o1` (stereo not drawn) [Example 13, N-[6-(5-chloro-1,3-benzothiazol-2-yl)spiro[3.3]heptan-2-yl]-5-cyclopropylsulfonyl-furan-2-carboxamide], the results for the IC50 in series [1] (setting [4]) and in series [2] (setting [5]) were 0.48 µM and 0.36 µM, respectively. In addition, the midpoint of cytotoxicity in series [3], the CC50 at 144 h, lay at 94.9 µM.
For `O=C(NC1CC2(C1)CC(c1nc3cc(Cl)ccc3s1)C2)c1ccnc(N2CCOCC2)c1` (stereo not drawn) [Example 52, N-[6-(5-chloro-1,3-benzothiazol-2-yl)spiro[3.3]heptan-2-yl]-2-morpholino-pyridine-4-carboxamide], the IC50 turned out to be 2.59 µM in series [1] (setting [4]) and 2.79 µM in series [2] (setting [5]). Further, the CC50 at 144 h in series [3] is more than 10 µM.
For `O=C(NC1CC2(C1)CC(c1nc3cc(Cl)ccc3s1)C2)c1ccnc(N2CCCCC2)c1` (stereo not drawn) [Example 51, N-[6-(5-chloro-1,3-benzothiazol-2-yl)spiro[3.3]heptan-2-yl]-2-(1-piperidyl)pyridine-4-carboxamide], the IC50 in series [1] (setting [4]) is 5.51 µM; in series [2] (setting [5]) it was 4.35 µM. In series [3], this compound yielded a CC50 at 144 h of more than 10 µM.
For `O=C(NC1CC2(C1)CC(c1nc3cc(Cl)ccc3s1)C2)c1ccc(C(O)C(F)(F)F)o1` (stereo not drawn) [Example 18, N-[6-(5-chloro-1,3-benzothiazol-2-yl)spiro[3.3]heptan-2-yl]-5-(2,2,2-trifluoro-1-hydroxyethyl)furan-2-carboxamide] the same measures were 5.52 µM, 4.59 µM and more than 10 µM.
For `O=C(NC1CC2(C1)CC(c1nc3cc(Cl)ccc3s1)C2)c1ccc(S(=O)(=O)N2CC(F)(F)C2)o1` (stereo not drawn) [Example 21, N-[6-(5-chloro-1,3-benzothiazol-2-yl)spiro[3.3]heptan-2-yl]-5-(3,3-difluoroazetidin-1-yl)sulfonyl-furan-2-carboxamide], in that order: 1.49 µM, 1.14 µM and more than 10 µM.
For `CCN(CC)c1cc(C(=O)NC2CC3(C2)CC(c2nc4cc(Cl)ccc4s2)C3)ccn1` (stereo not drawn) [Example 48, N-[6-(5-chloro-1,3-benzothiazol-2-yl)spiro[3.3]heptan-2-yl]-2-(diethylamino)pyridine-4-carboxamide] the same measures were 5.92 µM, 4.96 µM and more than 10 µM.
In the case of `O=C(NC1CC2(C1)CC(c1nc3cc(Cl)ccc3s1)C2)C1CS(=O)(=O)C1` (stereo not drawn) [Example 25, N-[6-(5-chloro-1,3-benzothiazol-2-yl)spiro[3.3]heptan-2-yl]-1,1-dioxo-thietane-3-carboxamide], the IC50 in series [1] (setting [4]) came out at 2.59 µM; in series [2] (setting [5]) it was 2.07 µM. This compound displayed a half-maximal cytotoxic concentration (CC50) at 144 h in series [3] of more than 10 µM.
Take `[H][C@]1(NC(=O)c2ccnc(S(C)(=O)=O)c2)C[C@@]2(C1)C[C@]([H])(c1nc3cc(Cl)ccc3s1)C2` (single isomer, unassigned) [Example 54-a, (Sa)-N-[6-(5-chloro-1,3-benzothiazol-2-yl)spiro[3.3]heptan-2-yl]-2-methylsulfonyl-pyridine-4-carboxamide]: the IC50 in series [1] (setting [6]) is 2.46 µM; in series [2] (setting [7]), 1.79 µM. In addition, the cytotoxic concentration (CC50) at 144 h in series [3] is more than 10 µM.
Turning to `O=C(NC1CC2(C1)CC(c1nc3cc(Cl)ccc3s1)C2)c1cccc(C(F)(F)F)c1` (stereo not drawn) [Example 1, N-[6-(5-chloro-1,3-benzothiazol-2-yl)spiro[3.3]heptan-2-yl]-3-(trifluoromethyl)benzamide], the values for the IC50 in series [1] (setting [4]) and in series [2] (setting [5]) were 6.55 µM and 4.53 µM, respectively. The CC50 at 144 h in series [3] is more than 10 µM.
Take `O=C(NC1CC2(C1)CC(c1nc3cc(Cl)ccc3s1)C2)c1ccc(S(=O)(=O)NC2CC(C(F)(F)F)C2)o1` (stereo not drawn) [Example 24, N-[6-(5-chloro-1,3-benzothiazol-2-yl)spiro[3.3]heptan-2-yl]-5-[[3-(trifluoromethyl)cyclobutyl]sulfamoyl]furan-2-carboxamide]: the IC50 in series [1] (setting [4]) stood at 1.4 µM; in series [2] (setting [5]), 1.04 µM. This compound also showed a CC50 at 144 h in series [3] of 19.7 µM.
For `CC(C)(c1ccc(C(=O)NC2CC3(C2)CC(c2nc4cc(Cl)ccc4s2)C3)o1)S(C)(=O)=O` (stereo not drawn) [Example 17, N-[6-(5-chloro-1,3-benzothiazol-2-yl)spiro[3.3]heptan-2-yl]-5-(1-methyl-1-methylsulfonyl-ethyl)furan-2-carboxamide], in that order: 2.11 µM, 1.6 µM and 35.7 µM.
